Measurements from PubChem BioAssay (NCI).
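Step 1: Grow cells in 96-well plates. Step 2: Expose to compound for 48 hours at 5 concentrations. Step 3: Interpolate endpoints linearly; if unreached, use highest concentration. TGI marks complete inhibition of growth.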

Assays:
Assay in all cases: NCI tumour cell line growth inhibition, 48 h
786-0 renal = tested on: 786-0 renal
A498 renal = tested on: A498 renal
ACHN renal = tested on: ACHN renal
CAKI-1 renal = tested on: CAKI-1 renal
HCT-116 colon = tested on: HCT-116 colon
HOP-62 NSCLC = tested on: HOP-62 NSCLC
K-562 leukemia = tested on: K-562 leukemia
MALME-3M melanoma = tested on: MALME-3M melanoma
MDA-MB-435 = tested on: MDA-MB-435
NCI-H522 lung = tested on: NCI-H522 lung
NCI/ADR-RES ovarian = tested on: NCI/ADR-RES ovarian
OVCAR-4 ovarian = tested on: OVCAR-4 ovarian
OVCAR-5 ovarian = tested on: OVCAR-5 ovarian
SF-268 CNS = tested on: SF-268 CNS
SK-MEL-2 melanoma = tested on: SK-MEL-2 melanoma
SK-MEL-28 melanoma = tested on: SK-MEL-28 melanoma
SK-MEL-5 melanoma = tested on: SK-MEL-5 melanoma
SN12C renal = tested on: SN12C renal
SNB-19 CNS = tested on: SNB-19 CNS

Structure (SMILES)	TGI (786-0 renal)	TGI (A498 renal)	TGI (ACHN renal)	TGI (CAKI-1 renal)	TGI (HCT-116 colon)	TGI (HOP-62 NSCLC)	TGI (K-562 leukemia)	TGI (MALME-3M melanoma)	TGI (MDA-MB-435)	TGI (NCI-H522 lung)	TGI (NCI/ADR-RES ovarian)	TGI (OVCAR-4 ovarian)	TGI (OVCAR-5 ovarian)	TGI (SF-268 CNS)	TGI (SK-MEL-2 melanoma)	TGI (SK-MEL-28 melanoma)	TGI (SK-MEL-5 melanoma)	TGI (SN12C renal)	TGI (SNB-19 CNS)
CCOC(=O)C1(C#N)C(C#N)(C#N)C1(C#N)C#N	> 100 µM	> 100 µM	> 100 µM	> 100 µM	> 100 µM	> 100 µM	> 100 µM	> 100 µM	> 100 µM	> 100 µM	> 100 µM	> 100 µM	> 100 µM	> 100 µM	> 100 µM	> 100 µM	> 100 µM	> 100 µM	> 100 µM
O=C1CCSc2nc(-c3ccc4c(c3)OCO4)nn21	> 10 µM	> 10 µM	> 10 µM	> 10 µM	> 10 µM	> 10 µM	> 10 µM	> 10 µM	> 10 µM	> 10 µM	> 10 µM	> 10 µM	> 10 µM	> 10 µM	> 10 µM	> 10 µM	> 10 µM	> 10 µM	> 10 µM
COC(=O)c1ccc(C)cc1C1CN=NC12Cc1cc(C)ccc1C2=O (stereo not given)	> 92.6 µM	55.5 µM	> 100 µM	97.3 µM	28.6 µM	> 100 µM	> 68.1 µM	> 100 µM	6.12 µM	26.8 µM	47.5 µM	98.7 µM	> 100 µM	> 100 µM	45.8 µM	> 100 µM	21.6 µM	> 87.1 µM	> 100 µM
O=C(O)C1=CN(c2ccncc2)C(c2ccco2)=CC1c1ccccc1[N+](=O)[O-] (stereo not given)	4.15 µM	28.7 µM	3.59 µM	34.1 µM	3.66 µM	32.9 µM	> 100 µM	26.4 µM	> 57.6 µM	25.3 µM	> 69.8 µM	28.2 µM	25.5 µM	25.9 µM	34.3 µM	40.9 µM	> 49.6 µM	29.1 µM	27.8 µM
CC[C@@H]1CC[C@@H]2[C@H](CC[C@]3(C)[C@@H](OC(C)=O)CC[C@@H]23)[C@H]1C(=O)OC	47.3 µM	> 100 µM	> 100 µM	> 100 µM	33.7 µM	53.7 µM	40.1 µM	33.3 µM	41.9 µM	47.8 µM	68.5 µM	52.8 µM	59.5 µM	81.1 µM	39.2 µM	> 100 µM	27.7 µM	69.9 µM	72.4 µM
CCCCCCCc1cscc1-c1cscc1Br	> 100 µM	> 100 µM	> 100 µM	91.2 µM	> 100 µM	> 100 µM	> 100 µM	> 100 µM	> 100 µM	61.9 µM	> 100 µM	> 100 µM	89.4 µM	> 100 µM	34.1 µM	> 100 µM	> 100 µM	> 100 µM	> 100 µM
Cc1c2ccccc2c(C2C3C(=O)N(c4cccc5ccccc45)C(=O)C3ON2Cc2ccc(CC(N)=O)cc2)c2ccccc12 (stereo not given)	> 50 µM	> 50 µM	> 50 µM	> 50 µM	> 50 µM	> 50 µM	> 50 µM	> 50 µM	> 50 µM	> 50 µM	> 50 µM	> 50 µM	> 50 µM	> 50 µM	31.3 µM	> 50 µM	> 50 µM	> 50 µM	> 50 µM
C=CC(OC(=O)C(C)C)c1ccc(OC(=O)C(C)C)cc1 (stereo not given)	18.9 µM	31.6 µM	28 µM	10.2 µM	20.6 µM	22.6 µM	66.6 µM	22 µM	26.4 µM	3.56 µM	54.8 µM	33.8 µM	20.2 µM	62.2 µM	24 µM	23.8 µM	30.6 µM	30 µM	28.2 µM
CCCCCCCCCCCCCCCC(=O)Nc1ccn(C2CCC(COP(=O)(O)OCC3OC(n4cc(F)c(=O)[nH]c4=O)CC3OC(C)=O)O2)c(=O)n1 (stereo not given)	> 100 µM	> 100 µM	> 100 µM	> 42.5 µM	34.1 µM	37.7 µM	> 38.2 µM	53.3 µM	44.2 µM	27.7 µM	> 100 µM	> 86.5 µM	> 74.5 µM	> 82.8 µM	47.6 µM	43.8 µM	26.9 µM	> 73.7 µM	35.2 µM
COc1cc2c(cc1O)Cc1c-2[n+](C)cc2cc(OC)c(OC)cc12	> 44.7 µM	> 100 µM	> 100 µM	> 100 µM	> 100 µM	> 100 µM	> 100 µM	> 100 µM	> 100 µM	> 100 µM	> 100 µM	> 100 µM	> 100 µM	> 100 µM	> 100 µM	> 100 µM	23.3 µM	> 100 µM	> 50 µM
